Results taken from patent publication US8828929B2 (priority 2008, dated 2014).
Where no end group is shown, it is not given here.

What was measured:
[1] = target: T1, HLA-A*0201 (Homo sapiens, UniProt P04439, /I218V/L300P/L318F/N151K/N90K/P208A/P217A/Q86G/Q94H/R138H/R169H/T345S); assay: cell-based; assay type: binding
T1 construct: endogenous in cells; host or cells: T2 cells (human lymphoid, TAP-deficient)

[2] = tested on: peptide-specific CTLs (IFN-γ-positive cells among CD8-positive cells); parameters: species or system HLA-A2 transgenic mouse; settings: mouse, in vivo; for ICS (% in CD8+ cells): iv
[3] = tested on: peptide-specific CTLs (IFN-γ-positive cells among CD8-positive cells); parameters: species or system HLA-A2 transgenic mouse; settings: mouse, in vivo
[4] = tested on: target cells pulsed with the peptide; parameters: species or system HLA-A2 transgenic mouse; settings: mouse, in vivo
[5] = target: T2, HLA-A*0201 (Homo sapiens, UniProt P04439, D140Y/D185E/D98H/E176V/E277Q/G131W/G231S/I119V/I121R/I166T/I218V/L300P/L318F/N151K/N90K/P208A/P217A/Q86G/Q94H/R138H/R169H/T345S); assay: cell-based; assay type: binding
T2 construct: endogenous in cells; host or cells: T2 cells (human lymphoid, TAP-deficient)

## CC[C@H](C)[C@H](NC(=O)[C@H](CCC(=O)O)NC(=O)[C@H](CC(C)C)NC(=O)[C@H](CC(C)C)NC(=O)[C@H](CC(=O)O)NC(=O)[C@H](CCC(=O)O)NC(=O)[C@H](CC(N)=O)NC(=O)[C@H](CC(C)C)NC(=O)[C@@H](N)[C@@H](C)O)C(=O)O [pp1a-445]
[1]
  Affinity: High (key: High: less than 100 μM; Medium: 100 to 200 μM; Low: more than 200 μM)
[2]
  ICS (% in CD8+ cells): 0.08%

## CC[C@H](C)[C@H](NC(=O)[C@H](CC(=O)O)NC(=O)[C@H](Cc1ccccc1)NC(=O)[C@@H](NC(=O)CNC(=O)[C@@H](NC(=O)[C@@H](NC(=O)[C@H](CC(C)C)NC(=O)[C@@H](N)Cc1ccccc1)[C@@H](C)CC)[C@@H](C)O)C(C)C)C(=O)O [pp1a-651]
[1]
  Affinity: High (key: High: less than 100 μM; Medium: 100 to 200 μM; Low: more than 200 μM)
[2]
  ICS (% in CD8+ cells): 0.02%

## CC[C@H](C)[C@H](NC(=O)[C@H](CO)NC(=O)[C@H](CC(C)C)NC(=O)[C@H](CC(C)C)NC(=O)[C@H](CC(C)C)NC(=O)[C@H](CC(C)C)NC(=O)[C@H](Cc1c[nH]c2ccccc12)NC(=O)[C@H](CCSC)NC(=O)[C@H](C)N)C(=O)O [pp1a-2207]
[2]
  induction of IFN-γ-positive cells among CD8-positive cells: significantly induced IFN-γ-positive cells among CD8-positive cells
  ICS (% in CD8+ cells): *0.48%
[3]
  CTL induction activity: higher than that of the CTL epitope peptide of the Spike protein

## CC(C)C[C@H](NC(=O)[C@H](C)NC(=O)[C@H](C)NC(=O)[C@H](CC(C)C)NC(=O)[C@@H](NC(=O)[C@H](CS)NC(=O)[C@H](CC(C)C)NC(=O)[C@H](CC(C)C)NC(=O)[C@@H](N)[C@@H](C)O)C(C)C)C(=O)O [pp1a-2754, TLLCVLAAL]
[1]
  Affinity: High (key: High: less than 100 μM; Medium: 100 to 200 μM; Low: more than 200 μM)
[2]
  ICS (% in CD8+ cells): 0.04%

## CC(C)C[C@H](NC(=O)[C@H](Cc1c[nH]c2ccccc12)NC(=O)[C@H](C)NC(=O)[C@H](CC(C)C)NC(=O)[C@@H](N)C(C)C)C(=O)N[C@@H](Cc1ccc(O)cc1)C(=O)N[C@@H](C)C(=O)N[C@@H](C)C(=O)N[C@H](C(=O)O)C(C)C [pp1a-3444]
[1]
  Affinity: High (key: High: less than 100 μM; Medium: 100 to 200 μM; Low: more than 200 μM)
[2]
  induction of IFN-γ-positive cells among CD8-positive cells: significantly induced IFN-γ-positive cells among CD8-positive cells
  ICS (% in CD8+ cells): *0.12%

## CC(C)C[C@H](NC(=O)[C@@H](NC(=O)[C@@H](NC(=O)[C@@H](NC(=O)[C@H](Cc1ccccc1)NC(=O)[C@H](CCCNC(=N)N)NC(=O)[C@H](CC(N)=O)NC(=O)[C@H](CC(C)C)NC(=O)[C@@H](N)Cc1ccccc1)[C@@H](C)O)[C@@H](C)O)[C@@H](C)O)C(=O)O [pp1a-3459]
[1]
  Affinity: High (key: High: less than 100 μM; Medium: 100 to 200 μM; Low: more than 200 μM)
[2]
  ICS (% in CD8+ cells): 0.03%

## CC[C@H](C)[C@H](NC(=O)[C@H](CC(C)C)NC(=O)[C@H](CC(C)C)NC(=O)[C@H](CO)NC(=O)[C@@H](NC(=O)[C@H](CC(C)C)NC(=O)[C@@H](N)Cc1ccccc1)[C@@H](C)O)C(=O)N[C@@H](CC(C)C)C(=O)N[C@H](C(=O)O)C(C)C [pp1a-3564]
[1]
  Affinity: Medium (key: High: less than 100 μM; Medium: 100 to 200 μM; Low: more than 200 μM)
[2]
  ICS (% in CD8+ cells): 0.06%

## CC(C)C[C@H](NC(=O)[C@H](CO)NC(=O)[C@@H]1CCCN1C(=O)[C@H](CC(C)C)NC(=O)[C@H](CC(C)C)NC(=O)[C@@H](N)Cc1ccccc1)C(=O)N[C@@H](C)C(=O)N[C@H](C(=O)N[C@H](C(=O)O)C(C)C)[C@@H](C)O [pp1a-3616]
[1]
  Affinity: High (key: High: less than 100 μM; Medium: 100 to 200 μM; Low: more than 200 μM)
[2]
  ICS (% in CD8+ cells): 0.07%

## CC[C@H](C)[C@H](NC(=O)[C@@H](NC(=O)[C@H](CC(N)=O)NC(=O)[C@H](CCSC)NC(=O)[C@H](CC(C)C)NC(=O)[C@@H](N)[C@@H](C)O)C(C)C)C(=O)N[C@H](C(=O)N[C@@H](CC(C)C)C(=O)N[C@H](C(=O)O)C(C)C)[C@@H](C)O [pp1a-3687]
[1]
  Affinity: High (key: High: less than 100 μM; Medium: 100 to 200 μM; Low: more than 200 μM)
[2]
  induction of IFN-γ-positive cells among CD8-positive cells: significantly induced IFN-γ-positive cells among CD8-positive cells
  ICS (% in CD8+ cells): *0.20%
[3]
  CTL induction activity: higher than that of the CTL epitope peptide of the Spike protein

## CC[C@H](C)[C@H](NC(=O)[C@@H](NC(=O)[C@H](CC(C)C)NC(=O)[C@H](C)NC(=O)[C@H](Cc1c[nH]c2ccccc12)NC(=O)[C@H](CCSC)NC(=O)[C@@H](N)CO)C(C)C)C(=O)N[C@@H](CO)C(=O)N[C@H](C(=O)O)C(C)C [pp1a-3709]
[1]
  Affinity: High (key: High: less than 100 μM; Medium: 100 to 200 μM; Low: more than 200 μM)
[2]
  induction of IFN-γ-positive cells among CD8-positive cells: significantly induced IFN-γ-positive cells among CD8-positive cells
  ICS (% in CD8+ cells): *0.50%
[3]
  CTL induction activity: higher than that of the CTL epitope peptide of the Spike protein
[4]
  CTL response activity: especially high CTL response activity
  peptide-specific lysis rates (%) of the target cells by CTLs: 96.3%

## ALSGVFCGV [pp1a-2990]
[1]
  Affinity: High (key: High: less than 100 μM; Medium: 100 to 200 μM; Low: more than 200 μM)
[5]
  EC50: 6.2 µM
[2]
  induction of IFN-γ-positive cells among CD8-positive cells: significantly induced IFN-γ-positive cells among CD8-positive cells
  ICS (% in CD8+ cells): *0.16%
[3]
  CTL induction activity: higher than that of the CTL epitope peptide of the Spike protein
[4]
  CTL response activity: high CTL response activities
  peptide-specific lysis rates (%) of the target cells by CTLs: 73.4%

## FIAGLIAIV [spike-1203, reference compound]
[3]
  ratio (%) of IFN-γ-positive cells among CD8-positive cells: 0.29%

## ILLLDQVLV [pp1a-2546]
[1]
  Affinity: High (key: High: less than 100 μM; Medium: 100 to 200 μM; Low: more than 200 μM)
[5]
  EC50: 7.6 µM
[2]
  induction of IFN-γ-positive cells among CD8-positive cells: significantly induced IFN-γ-positive cells among CD8-positive cells
  ICS (% in CD8+ cells): *0.17%
[3]
  CTL induction activity: higher than that of the CTL epitope peptide of the Spike protein

## KLNIKLLGI [pp1a-3816]
[1]
  Affinity: High (key: High: less than 100 μM; Medium: 100 to 200 μM; Low: more than 200 μM)
[5]
  EC50: 68.1 µM
[2]
  ICS (% in CD8+ cells): 0.07%

## KLSAGVEFL [pp1a-634]
[1]
  Affinity: High (key: High: less than 100 μM; Medium: 100 to 200 μM; Low: more than 200 μM)
[5]
  EC50: 59.8 µM
[2]
  ICS (% in CD8+ cells): 0.08%

## LLCVLAALV [pp1a-2755]
[5]
  EC50: 187 µM
[2]
  induction of IFN-γ-positive cells among CD8-positive cells: significantly induced IFN-γ-positive cells among CD8-positive cells
  ICS (% in CD8+ cells): *0.18%
[3]
  CTL induction activity: higher than that of the CTL epitope peptide of the Spike protein
[4]
  CTL response activity: high CTL response activities
  peptide-specific lysis rates (%) of the target cells by CTLs: 70.5%

## LLFITGNTL [pp1a-3745]
[1]
  Affinity: Medium (key: High: less than 100 μM; Medium: 100 to 200 μM; Low: more than 200 μM)
[5]
  EC50: 154 µM
[2]
  ICS (% in CD8+ cells): 0.03%

## MLLTFLTSL [pp1a-3560]
[1]
  Affinity: High (key: High: less than 100 μM; Medium: 100 to 200 μM; Low: more than 200 μM)
[5]
  EC50: 47.1 µM
[2]
  ICS (% in CD8+ cells): 0.04%

## MLSRALKKV [pp1a-1288]
[1]
  Affinity: High (key: High: less than 100 μM; Medium: 100 to 200 μM; Low: more than 200 μM)
[5]
  EC50: 65.1 µM
[2]
  ICS (% in CD8+ cells): 0.05%

## QLSLPVLQV [pp1a-15]
[1]
  Affinity: High (key: High: less than 100 μM; Medium: 100 to 200 μM; Low: more than 200 μM)
[5]
  EC50: 75.7 µM
[2]
  ICS (% in CD8+ cells): 0.05%

## SLQVCVQTV [pp1a-1139]
[1]
  Affinity: High (key: High: less than 100 μM; Medium: 100 to 200 μM; Low: more than 200 μM)
[5]
  EC50: 4.9 µM
[2]
  ICS (% in CD8+ cells): 0.07%

## TLGVLVPHV [pp1a-103]
[1]
  Affinity: High (key: High: less than 100 μM; Medium: 100 to 200 μM; Low: more than 200 μM)
[5]
  EC50: 3.1 µM
[2]
  ICS (% in CD8+ cells): 0.07%

## VLGSLAATV [pp1a-4219]
[1]
  Affinity: High (key: High: less than 100 μM; Medium: 100 to 200 μM; Low: more than 200 μM)
[5]
  EC50: 53.3 µM
[2]
  ICS (% in CD8+ cells): 0.01%

## VLLSVLQQL [pp1a-3848]
[1]
  Affinity: Medium (key: High: less than 100 μM; Medium: 100 to 200 μM; Low: more than 200 μM)
[5]
  EC50: 102 µM
[2]
  ICS (% in CD8+ cells): 0.07%

## YLSSVLLAL [pp1a-1652, YLSSVLLAL]
[1]
  Affinity: High (key: High: less than 100 μM; Medium: 100 to 200 μM; Low: more than 200 μM)
[5]
  EC50: 6.7 µM
[2]
  ICS (% in CD8+ cells): 0.05%
